Like-named read-outs stand apart in the source and are kept apart here.
Legend:
[1] = system: expanded OPCs; experiment: cells; settings: for viability at 0.1 µM / viability at 1 µM / viability at 10 µM: Rattus norvegicus, 72 h; for 0.1 µM (% DMSO) / 1 µM (% DMSO) / 10 µM (% DMSO): alamarBlue viability of expanded OPCs, relative to DMSO control; for 0.1 µM (% DMSO): compound at 0.1 µM; for 1 µM (% DMSO): compound at 1 µM; for 10 µM (% DMSO): compound at 10 µM
Summary of the method: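 Expanded OPCs seeded at 10,000 cells/well in differentiation media, then exposed to NCC library compounds at 10, 1 and 0.1 µM (quadruplicate, 0.1% DMSO) for three days. Viability read as alamarBlue fluorescence (560/590 nm) after 4 h at 37 °C; tunicamycin 5 ng/ml served as toxicity control.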

[2] = system: acutely dissociated and purified rat OPCs; experiment: Acute OL differentiation assay (MBP expression/cell, immunofluorescent image quantification); assay type: cell-based; settings: for activation at 0.08 µM / activation at 0.4 µM / activation at 2 µM / activation at 10 µM: sheet "All OLga data"
Summary of the method: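 Oligodendrocyte precursor cells were enriched from P6-P7 Sprague–Dawley rat brains by immunopanning (RAN-2 and GalC depletion, O4 selection), plated at 5000 cells/well in serum-free, mitogen-free differentiation media on PDL/laminin 96-well view plates, centrifuged at 200×g, and pre-incubated 1–2 h before test compounds were added in quadruplicate. On DIV4, cells were fixed, stained for MBP and DAPI, imaged automatically, and MBP expression per cell was quantified.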

[3] = read-out: 0.1 µM (% DMSO), alamarBlue viability, NCC library compound at 0.1 µM, sheet "All Tox data"
[4] = read-out: 1 µM (% DMSO), alamarBlue viability, NCC library compound at 1 µM, sheet "All Tox data"
[5] = read-out: 10 µM (% DMSO), alamarBlue viability, NCC library compound at 10 µM, sheet "All Tox data"
[6] = Rattus norvegicus, test compound at 0.4 uM, NCC library screen, relative to quetiapine, read-out: 0.4 uM (% Quet)
[7] = read-out: 0.1 µM (% DMSO), alamarBlue viability of expanded OPCs, compound at 0.1 µM, sheet All Tox data
[8] = read-out: 1 µM (% DMSO), alamarBlue viability of expanded OPCs, compound at 1 µM, sheet All Tox data
[9] = read-out: 10 µM (% DMSO), alamarBlue viability of expanded OPCs, compound at 10 µM, sheet All Tox data
[10] = Rattus norvegicus, 2 uM test compound, relative to quetiapine, read-out: OL differentiation, 2 uM (% Quet)
[11] = Rattus norvegicus, 10 uM test compound, relative to quetiapine, read-out: OL differentiation, 10 uM (% Quet)
[12] = Rattus norvegicus, test compound at 2 uM, NCC library screen, relative to quetiapine, read-out: 2 uM (% Quet)
[13] = Rattus norvegicus, test compound at 10 uM, NCC library screen, relative to quetiapine, read-out: 10 uM (% Quet)
[14] = Rattus norvegicus, test compound at 2 uM, MBP expression relative to quetiapine, NCC library screen, read-out: 2 uM (% Quet)
[15] = Rattus norvegicus, test compound at 10 uM, MBP expression relative to quetiapine, NCC library screen, read-out: 10 uM (% Quet)
[16] = Rattus norvegicus, 0.4 uM test compound, relative to quetiapine, read-out: OL differentiation, 0.4 uM (% Quet)

Row | SMILES | viability at 0.1 µM [1, 3] [%] | viability at 1 µM [1, 4] [%] | viability at 10 µM [1, 5] [%] | viability at 0.1 µM [1, 7] [%] | viability at 1 µM [1, 8] [%] | viability at 10 µM [1, 9] [%] | activation at 2 µM [2, 12] [%] | activation at 10 µM [2, 13] [%] | other results
1 | CSc1ccc2c(c1)N(CCC1CCCCN1C)c1ccccc1S2 (centres unmarked) [Thioridazine] | 53.8 | 24.4 | 9.4 | – | – | – | – | – | activation at 0.08 µM ([2]; Rattus norvegicus, test compound at 0.08 uM, NCC library screen, relative to quetiapine, read-out: 0.08 uM (% Quet)): -4.7%; activation at 0.4 µM [2, 6]: -158%
2 | CN1CCN(CC/C=C2/c3ccccc3Sc3ccc(S(=O)(=O)N(C)C)cc32)CC1 [Thiothixene] | – | – | – | – | – | – | – | – | 0.1 µM (% DMSO) [1]: 81.2 % DMSO; 1 µM (% DMSO) [1]: 49.9 % DMSO; 10 µM (% DMSO) [1]: 16.9 % DMSO; activation at 0.08 µM ([2]; Rattus norvegicus, test compound at 0.08 uM, MBP expression relative to quetiapine, NCC library screen, read-out: 0.08 uM (% Quet)): 45.9%; activation at 0.4 µM ([2]; Rattus norvegicus, test compound at 0.4 uM, MBP expression relative to quetiapine, NCC library screen, read-out: 0.4 uM (% Quet)): 24%
3 | Cc1ccsc1C(=CCCN1CCC[C@@H](C(=O)O)C1)c1sccc1C [Tiagabine] | – | – | – | 99.9 | 89.2 | 92.7 | – | – | activation at 2 µM [2, 10]: -1.8%; activation at 10 µM [2, 11]: 8.7%
4 | C#C[C@]1(O)CC[C@H]2[C@@H]3[C@H](C)CC4=C(CCC(=O)C4)[C@H]3CC[C@@]21C [Tibolone] | 84.8 | 85.4 | 77.4 | – | – | – | 6.5 | -6.7 | –
5 | CC(C)(C)NC[C@H](O)COc1nsnc1N1CCOCC1 [Timolol] | 99.5 | 89.9 | 92.8 | – | – | – | -5.6 | -24.3 | –
6 | CCS(=O)(=O)CCn1c([N+](=O)[O-])cnc1C [Tinidazole] | 91.7 | 95.3 | 97.1 | – | – | – | -10.8 | 10.4 | –
7 | Clc1ccc2nsnc2c1NC1=NCCN1 [Tizanidine] | – | – | – | – | – | – | – | – | 0.1 µM (% DMSO) [1]: 92.8 % DMSO; 1 µM (% DMSO) [1]: 97.3 % DMSO; 10 µM (% DMSO) [1]: 87.9 % DMSO; activation at 2 µM [2, 14]: 13.7%; activation at 10 µM [2, 15]: -4.2%
8 | Cc1cccc(C)c1NC(=O)C(C)N (centres unmarked) [Tocainide] | – | – | – | 94.9 | 96.2 | 98 | – | – | activation at 2 µM [2, 10]: 1.2%; activation at 10 µM [2, 11]: -23.2%
9 | Cc1ccc(S(=O)(=O)NC(=O)NN2CCCCCC2)cc1 [Tolazamide] | – | – | – | – | – | – | -14.2 | -2 | 0.1 µM (% DMSO) [1]: 100.3 % DMSO; 1 µM (% DMSO) [1]: 95.8 % DMSO; 10 µM (% DMSO) [1]: 99.9 % DMSO
10 | c1ccc(CC2=NCCN2)cc1 [Tolazoline] | – | – | – | – | – | – | – | – | 0.1 µM (% DMSO) [1]: 90.4 % DMSO; 1 µM (% DMSO) [1]: 94.2 % DMSO; 10 µM (% DMSO) [1]: 86.6 % DMSO; activation at 2 µM [2, 14]: -2.4%; activation at 10 µM [2, 15]: -19.3%
11 | CCCCNC(=O)NS(=O)(=O)c1ccc(C)cc1 [Tolbutamide] | 105 | 107 | 117 | – | – | – | -1.3 | 20.2 | –
12 | Cc1ccc(O)c([C@H](CCN(C(C)C)C(C)C)c2ccccc2)c1 [Tolterodine] | – | – | – | 88.4 | 87.8 | 46.5 | – | – | activation at 0.4 µM [2, 16]: -6.8%; activation at 2 µM [2, 10]: -0.9%
13 | CC1(C)O[C@@H]2[C@@H](CO[C@@]3(COS(N)(=O)=O)OC(C)(C)O[C@@H]23)O1 [Topiramate] | – | – | – | 94 | 93.5 | 86.5 | – | – | activation at 2 µM [2, 10]: 8.5%; activation at 10 µM [2, 11]: 0.05%
14 | CC[C@@]1(O)C(=O)OCc2c1cc1n(c2=O)Cc2cc3c(CN(C)C)c(O)ccc3nc2-1 [Topotecan] | – | – | – | 72 | 49.7 | 12.3 | – | – | activation at 0.08 µM ([2]; Rattus norvegicus, 0.08 uM test compound, relative to quetiapine, read-out: OL differentiation, 0.08 uM (% Quet)): -46.4%; activation at 0.4 µM [2, 16]: -124%
15 | CN(C)CCOc1ccc(/C(=C(/CCCl)c2ccccc2)c2ccccc2)cc1 [Toremifene, reference compound] | 174 | 57.8 | 9.9 | – | – | – | -169 | – | activation at 0.4 µM [2, 6]: 74.9%; EC50 ([2]; Rattus norvegicus, average EC50 for induction of OL differentiation from independent biological replicates, eight concentrations): 100 nM; hit in OL differentiation assay, MRF-TMC ([2]; ● = confirmed hit in this paper's assay): ●
